Source: US10131652B2, “Pyrimidinyloxy benzene derivatives as herbicides” (E. I. DU PONT DE NEMOURS AND COMPANY, priority 2014, dated 2018)
Like-named read-outs stand apart in the source and are kept apart here.

What was measured:
Assay in all cases: Test E pre-/postemergence plant response
Type in all cases: in vivo
[1] = tested on: bluegrass (annual bluegrass, Poa annua); settings: scale 0 to 100, read-out: Plant response rating, Bluegrass; for pest or weed control at 16 g/ha: 16 g ai/ha; for pest or weed control at 31 g/ha: 31 g ai/ha; for pest or weed control at 62 g/ha: 62 g ai/ha; for pest or weed control at 125 g/ha: 125 g ai/ha
In short: (§1)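 Pre-emergence: seeds sown in silt loam soil and sprayed with test chemicals in a non-phytotoxic solvent/surfactant mix. Post-emergence: plants at 2–18 cm (1- to 4-leaf stage) in peat/vermiculite medium treated with the same formulation. Visual rating versus controls after 7–21 days, 0 (no effect) to 100 (complete control).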

[2] = tested on: chamomile (scentless chamomile, Matricaria inodora); settings: Tripleurospermum inodorum, post-emergence, Postemergence, scale 0 to 100, read-out: Plant response rating, Chamomile
In short: as §1

[3] = tested on: downy bromegrass (Bromus tectorum); settings: scale 0 to 100, read-out: Plant response rating, Bromegrass, Downy; for pest or weed control at 16 g/ha: 16 g ai/ha; for pest or weed control at 31 g/ha: 31 g ai/ha; for pest or weed control at 62 g/ha: 62 g ai/ha; for pest or weed control at 125 g/ha: 125 g ai/ha
In short: as §1

[4] = tested on: field poppy (Papaver rhoeas); settings: scale 0 to 100, read-out: Plant response rating, Field Poppy; for pest or weed control at 16 g/ha: 16 g ai/ha; for pest or weed control at 31 g/ha: 31 g ai/ha; for pest or weed control at 62 g/ha: 62 g ai/ha; for pest or weed control at 125 g/ha: 125 g ai/ha
In short: as §1

[5] = tested on: green foxtail (Setaria viridis); settings: scale 0 to 100, read-out: Plant response rating, Foxtail, Green; for pest or weed control at 16 g/ha: 16 g ai/ha; for pest or weed control at 31 g/ha: 31 g ai/ha; for pest or weed control at 62 g/ha: 62 g ai/ha; for pest or weed control at 125 g/ha: 125 g ai/ha
In short: as §1

kochia (Kochia scoparia) = settings: Bassia scoparia, scale 0 to 100, read-out: Plant response rating, Kochia; for pest or weed control at 16 g/ha: 16 g ai/ha; for pest or weed control at 31 g/ha: 31 g ai/ha; for pest or weed control at 62 g/ha: 62 g ai/ha; for pest or weed control at 125 g/ha: 125 g ai/ha
In short: as §1

[6] = tested on: oilseed rape (Brassica napus); settings: scale 0 to 100, read-out: Plant response rating, Oilseed Rape; for plant injury at 16 g/ha: 16 g ai/ha; for plant injury at 31 g/ha: 31 g ai/ha; for plant injury at 62 g/ha: 62 g ai/ha; for plant injury at 125 g/ha: 125 g ai/ha
In short: as §1

[7] = tested on: speedwell (bird's-eye speedwell, Veronica persica); settings: scale 0 to 100, read-out: Plant response rating, Speedwell; for pest or weed control at 16 g/ha: 16 g ai/ha; for pest or weed control at 62 g/ha: 62 g ai/ha; for pest or weed control at 125 g/ha: 125 g ai/ha
In short: as §1

[8] = tested on: spring wheat (Triticum aestivum); settings: scale 0 to 100, read-out: Plant response rating, Wheat, Spring; for plant injury at 16 g/ha: 16 g ai/ha; for plant injury at 62 g/ha: 62 g ai/ha; for plant injury at 125 g/ha: 125 g ai/ha
In short: as §1

[9] = tested on: wild mustard (Sinapis arvensis); settings: Brassica, scale 0 to 100, read-out: Plant response rating, Mustard, Wild; for pest or weed control at 16 g/ha: 16 g ai/ha; for pest or weed control at 31 g/ha: 31 g ai/ha; for pest or weed control at 62 g/ha: 62 g ai/ha; for pest or weed control at 125 g/ha: 125 g ai/ha
In short: as §1

[10] = tested on: winter wheat (Triticum aestivum); settings: scale 0 to 100, read-out: Plant response rating, Wheat, Winter; for plant injury at 16 g/ha: 16 g ai/ha; for plant injury at 62 g/ha: 62 g ai/ha; for plant injury at 125 g/ha: 125 g ai/ha
In short: as §1

[11] = post-emergence, 31 g ai/ha, Postemergence

SMILES: FC(F)c1cc(-c2ccccc2Oc2ncc(Cl)cn2)on1 [Compound 53, 5-chloro-2-[2-[3-(difluoromethyl)-5-isoxazolyl]phenoxy]pyrimidine]
- pest or weed control at 16 g/ha ([1]; post-emergence, Postemergence): 0%
- pest or weed control at 31 g/ha ([1]; post-emergence, Postemergence): 0%
- pest or weed control at 62 g/ha ([1]; post-emergence, Postemergence): 5%
- pest or weed control at 125 g/ha ([1]; post-emergence, Postemergence): 5%
- pest or weed control at 16 g/ha ([1]; pre-emergence, Preemergence): 10%
- pest or weed control at 31 g/ha ([1]; pre-emergence, Preemergence): 10%
- pest or weed control at 62 g/ha ([1]; pre-emergence, Preemergence): 20%
- pest or weed control at 125 g/ha ([1]; pre-emergence, Preemergence): 25%
- pest or weed control at 16 g/ha ([2]; 16 g ai/ha): 5%
- pest or weed control at 31 g/ha ([2]; 31 g ai/ha): 5%
- pest or weed control at 62 g/ha ([2]; 62 g ai/ha): 5%
- pest or weed control at 125 g/ha ([2]; 125 g ai/ha): 0%
- pest or weed control at 16 g/ha ([3]; post-emergence, Postemergence): 0%
- pest or weed control at 31 g/ha ([3]; post-emergence, Postemergence): 0%
- pest or weed control at 62 g/ha ([3]; post-emergence, Postemergence): 5%
- pest or weed control at 125 g/ha ([3]; post-emergence, Postemergence): 5%
- pest or weed control at 16 g/ha ([3]; pre-emergence, Preemergence): 0%
- pest or weed control at 31 g/ha ([3]; pre-emergence, Preemergence): 15%
- pest or weed control at 62 g/ha ([3]; pre-emergence, Preemergence): 15%
- pest or weed control at 125 g/ha ([3]; pre-emergence, Preemergence): 15%
- pest or weed control at 16 g/ha ([4]; post-emergence, Postemergence): 60%
- pest or weed control at 31 g/ha ([4]; post-emergence, Postemergence): 65%
- pest or weed control at 62 g/ha ([4]; post-emergence, Postemergence): 80%
- pest or weed control at 125 g/ha ([4]; post-emergence, Postemergence): 80%
- pest or weed control at 16 g/ha ([4]; pre-emergence, Preemergence): 100%
- pest or weed control at 31 g/ha ([4]; pre-emergence, Preemergence): 100%
- pest or weed control at 62 g/ha ([4]; pre-emergence, Preemergence): 100%
- pest or weed control at 125 g/ha ([4]; pre-emergence, Preemergence): 100%
- pest or weed control at 16 g/ha ([5]; post-emergence, Postemergence): 10%
- pest or weed control at 31 g/ha ([5]; post-emergence, Postemergence): 10%
- pest or weed control at 62 g/ha ([5]; post-emergence, Postemergence): 10%
- pest or weed control at 125 g/ha ([5]; post-emergence, Postemergence): 25%
- pest or weed control at 16 g/ha ([5]; pre-emergence, Preemergence): 10%
- pest or weed control at 31 g/ha ([5]; pre-emergence, Preemergence): 10%
- pest or weed control at 62 g/ha ([5]; pre-emergence, Preemergence): 20%
- pest or weed control at 125 g/ha ([5]; pre-emergence, Preemergence): 55%
- pest or weed control at 16 g/ha (kochia (Kochia scoparia); post-emergence, Postemergence): 50%
- pest or weed control at 31 g/ha (kochia (Kochia scoparia); post-emergence, Postemergence): 55%
- pest or weed control at 62 g/ha (kochia (Kochia scoparia); post-emergence, Postemergence): 70%
- pest or weed control at 125 g/ha (kochia (Kochia scoparia); post-emergence, Postemergence): 80%
- pest or weed control at 16 g/ha (kochia (Kochia scoparia); pre-emergence, Preemergence): 10%
- pest or weed control at 31 g/ha (kochia (Kochia scoparia); pre-emergence, Preemergence): 15%
- pest or weed control at 62 g/ha (kochia (Kochia scoparia); pre-emergence, Preemergence): 55%
- pest or weed control at 125 g/ha (kochia (Kochia scoparia); pre-emergence, Preemergence): 100%
- plant injury at 16 g/ha ([6]; post-emergence, Postemergence): 70%
- plant injury at 31 g/ha ([6]; post-emergence, Postemergence): 75%
- plant injury at 62 g/ha ([6]; post-emergence, Postemergence): 80%
- plant injury at 125 g/ha ([6]; post-emergence, Postemergence): 80%
- plant injury at 16 g/ha ([6]; pre-emergence, Preemergence): 50%
- plant injury at 31 g/ha ([6]; pre-emergence, Preemergence): 75%
- plant injury at 62 g/ha ([6]; pre-emergence, Preemergence): 100%
- plant injury at 125 g/ha ([6]; pre-emergence, Preemergence): 100%
- pest or weed control at 16 g/ha ([7]; post-emergence, Postemergence): 60%
- pest or weed control at 31 g/ha [7, 11]: 60%
- pest or weed control at 62 g/ha ([7]; post-emergence, Postemergence): 95%
- pest or weed control at 125 g/ha ([7]; post-emergence, Postemergence): 100%
- pest or weed control at 16 g/ha ([7]; pre-emergence, Preemergence): 100%
- pest or weed control at 62 g/ha ([7]; pre-emergence, Preemergence): 100%
- pest or weed control at 125 g/ha ([7]; pre-emergence, Preemergence): 100%
- plant injury at 16 g/ha ([8]; post-emergence, Postemergence): 10%
- plant injury at 31 g/ha [8, 11]: 10%
- plant injury at 62 g/ha ([8]; post-emergence, Postemergence): 20%
- plant injury at 125 g/ha ([8]; post-emergence, Postemergence): 35%
- plant injury at 16 g/ha ([8]; pre-emergence, Preemergence): 5%
- plant injury at 62 g/ha ([8]; pre-emergence, Preemergence): 10%
- plant injury at 125 g/ha ([8]; pre-emergence, Preemergence): 10%
- pest or weed control at 16 g/ha ([9]; post-emergence, Postemergence): 65%
- pest or weed control at 31 g/ha ([9]; post-emergence, Postemergence): 75%
- pest or weed control at 62 g/ha ([9]; post-emergence, Postemergence): 95%
- pest or weed control at 125 g/ha ([9]; post-emergence, Postemergence): 95%
- pest or weed control at 16 g/ha ([9]; pre-emergence, Preemergence): 90%
- pest or weed control at 31 g/ha ([9]; pre-emergence, Preemergence): 100%
- pest or weed control at 62 g/ha ([9]; pre-emergence, Preemergence): 100%
- pest or weed control at 125 g/ha ([9]; pre-emergence, Preemergence): 100%
- plant injury at 16 g/ha ([10]; post-emergence, Postemergence): 5%
- plant injury at 31 g/ha [10, 11]: 5%
- plant injury at 62 g/ha ([10]; post-emergence, Postemergence): 15%
- plant injury at 125 g/ha ([10]; post-emergence, Postemergence): 35%
- plant injury at 16 g/ha ([10]; pre-emergence, Preemergence): 15%
- plant injury at 62 g/ha ([10]; pre-emergence, Preemergence): 25%
- plant injury at 125 g/ha ([10]; pre-emergence, Preemergence): 30%
